# The NIST ThermoML archive (doi:10.1016/j.jct.2013.03.026)
# Numbers after ± are expanded uncertainties.
# Legend:
# [1] = DTA
# [2] = Molar enthalpy of transition or fusion; conditions: DSC
# [3] = molar heat capacity at constant pressure; conditions: 298.15 K, 101.33 kPa, Drop calorimetry
Structure (SMILES),Triple point temperature ([1]; Crystal) [K],Molar enthalpy of transition or fusion ([2]; Crystal) [kcal/mol],molar heat capacity at constant pressure ([3]; Crystal) [J/K/mol],other results
"c1ccc(-c2cccc(-c3cccc(-c4cccc(-c5ccccc5)c4)c3)c2)cc1 [1,1':3',1'':3'',1'':3'',1''''-quinquephenyl]",387.1 ± 0.4,7.46 ± 0.191,443.7 ± 10,–
"c1ccc(-c2ccc(-c3ccc(-c4ccccc4)cc3)cc2)cc1 [1,1':4',1'':4'',1'''-quaterphenyl]",594.4 ± 0.6,12.8 ± 0.359,–,–
"c1ccc(-c2ccc(-c3ccc(-c4ccc(-c5ccccc5)cc4)cc3)cc2)cc1 [1,1':4',1'':4'',1''':4''',1''''-quinquephenyl]",–,–,–,Triple point temperature ([1]; Crystal 1): 663.4 ± 3.9 K; Triple point temperature ([1]; Crystal 2): 642.2 ± 3.9 K; Triple point temperature ([1]; Nematic liquid crystal): 696 ± 3.9 K; Molar enthalpy of transition or fusion ([2]; Crystal 1): 11.7 ± 0.956 kcal/mol; Molar enthalpy of transition or fusion ([2]; Crystal 2): 0.12 ± 0.0717 kcal/mol; Molar enthalpy of transition or fusion ([2]; Nematic liquid crystal): 0.382 ± 0.0956 kcal/mol; molar heat capacity at constant pressure ([3]; Crystal 2): 455.5 ± 11 J/K/mol
c1ccc(-c2cccc(-c3ccccc3)c2)cc1 [m-terphenyl],361.8 ± 0.7,6.09 ± 0.167,–,–
c1ccc(-c2cccc(-c3cccc(-c4ccccc4)c3)c2)cc1 [metaquaterphenyl],360 ± 0.4,6.62 ± 0.191,359.5 ± 8.4,–
c1ccc(-c2ccccc2-c2ccccc2-c2ccccc2)cc1 [o-quaterphenyl],390.6 ± 0.5,6.5 ± 0.167,359.1 ± 8.3,–
c1ccc(-c2ccccc2-c2ccccc2-c2ccccc2-c2ccccc2)cc1 [o-quinquephenyl],428.8 ± 0.5,7.74 ± 0.191,444.3 ± 10,–
c1ccc(-c2ccccc2-c2ccccc2)cc1 [o-terphenyl],329.4 ± 0.4,4.06 ± 0.12,–,–
c1ccc(-c2ccc(-c3ccccc3)cc2)cc1 [p-terphenyl],490.9 ± 0.6,7.86 ± 0.215,–,–
